Assay results as given in patent US9271993B2, “Treatment of bacterial infectious diseases” (priority 2010, dated 2016).
Values after ≈ are worked out from the molar mass of the structure shown. Read-outs that look alike come from different tables or passages of the source.

How the values were obtained:
M. avium-intracellulare = experiment: Drug susceptibility of non-tuberculous slow-growing mycobacteria, MGIT960; format: cell-based
[1] = system: clinical methicillin resistant Staphylococcus aureus (MRSA) isolates; experiment: MIC against clinical MRSA isolates, LB microdilution assay
Protocol: Activity was assessed by determination of minimal inhibitory concentrations (MIC), as described in Pfister et al., Antimicrob. […] Cultures from single colonies were grown in LB medium and used for MIC tests in a microtiter plate format. Starting cultures contained 200 μl of bacterial cells at an optical density of 0.025 at 600 nm, and the respective drug was added in twofold series of dilution.

M. kansasii = experiment: Drug susceptibility of non-tuberculous slow-growing mycobacteria, MGIT960; format: cell-based
M. bolletii = experiment: MIC against non-tuberculous rapidly-growing mycobacteria, microdilution; format: cell-based; settings: Mycobacteroides abscessus, read-out: minimal inhibitory concentration (MIC)
Protocol: (§1) Activity of apramycin was assessed in standard microdilution assays and is expressed as minimal inhibitory concentration (MIC) in μg/ml.

M. massiliense = experiment: as above; format: cell-based; settings: Mycobacteroides abscessus, read-out: minimal inhibitory concentration (MIC)
Protocol: as §1

M. abscessus = experiment: as above; format: cell-based; settings: Mycobacteroides abscessus; strain 500039/08 M. abscessus; read-out: minimal inhibitory concentration (MIC)
Protocol: as §1

E. coli = experiment: MIC against gram-negative bacteria; format: cell-based; settings: Escherichia coli, read-out: MIC
Source text: Agents Chemother. 2003, 47:1496-1502.

mitohybrid ribosomes = experiment: Ribosomal drug susceptibility (MIC) of recombinant bacteria; design: MIC, mitohybrid ribosomes: unit not given beside the values; settings: Table 7; 72 h incubation
cytohybrid ribosomes = experiment: as above; design: MIC, cytohybrid ribosomes: unit not given beside the values; settings: Table 7; 72 h incubation
bacterial ribosomes = experiment: as above; design: MIC, bacterial ribosomes: unit not given beside the values; settings: Table 7; 72 h incubation
[2] = Staphylococcus aureus, MRSA, MRSA AG038, strain 70-26S Gm^S
[3] = Staphylococcus aureus, MRSA, MRSA AG040, strain 87-26S Gm^S
[4] = Staphylococcus aureus, MRSA, MRSA AG041, strain 98-25S Gm^S
[5] = Staphylococcus aureus, MRSA, MRSA AG042, strain 101-06R Gm^R
[6] = Staphylococcus aureus, MRSA, MRSA AG043, strain 01-08R Gm^R
[7] = Staphylococcus aureus, MRSA, MRSA AG044, strain 07-12R Gm^R
[8] = Staphylococcus aureus, MRSA, MRSA AG045, strain 08-12R Gm^R
[9] = Staphylococcus aureus, MRSA, MRSA AG049, strain 23-12R Gm^R
[10] = Staphylococcus aureus, MRSA, MRSA AG050, strain 31-06R Gm^R
[11] = Staphylococcus aureus, MRSA, MRSA AG051, strain 36-06R Gm^R
[12] = Staphylococcus aureus, MRSA, MRSA AG052, strain 53-14I Gm^R
[13] = Staphylococcus aureus, MRSA, MRSA AG053, strain 56-06R Gm^R
[14] = strain 177217/10 M. massiliense
[15] = strain 186139/07 M. massiliense
[16] = strain 500044/09 M. massiliense
[17] = Staphylococcus aureus, MRSA, MRSA AG048, strain 20-06R Gm^R
[18] = E. coli AG01, clin. isol. (Gm^S)
[19] = E. coli AG02, clin. isol (Gm^S)
[20] = E. coli AG03, clin. isol (Gm^R)
[21] = E. coli AG07, BM13/pIP135, resistance mechanism AAC(3)
[22] = E. coli AG08, BM13/pIP055, resistance mechanism ANT(2″)
[23] = E. coli AG09, AAC(6′)-1B, resistance mechanism AAC(6′)
[24] = E. coli AG36, HB101/pAT197, resistance mechanism ANT(4′)
[25] = E. coli AG37, HB101/pAG21-1, resistance mechanism APH(3′)

Structure (SMILES)	MIC ([1]; Staphylococcus aureus, MRSA) [µg/mL]	MIC [1, 2] [µg/mL]	MIC [1, 3] [µg/mL]	MIC [1, 4] [µg/mL]	MIC [1, 5] [µg/mL]	MIC [1, 6] [µg/mL]	MIC [1, 7] [µg/mL]	MIC [1, 8] [µg/mL]	MIC [1, 9] [µg/mL]	MIC [1, 10] [µg/mL]	MIC [1, 11] [µg/mL]	MIC [1, 12] [µg/mL]	MIC [1, 13] [µg/mL]	MIC (M. bolletii; strain 179639/10 M. bolletii) [µg/mL]	MIC (M. bolletii; strain 181739/08 M. bolletii) [µg/mL]	MIC (M. bolletii; strain 183177/08 M. bolletii) [µg/mL]	MIC (M. massiliense; [14]) [µg/mL]	MIC (M. massiliense; [15]) [µg/mL]	MIC (M. massiliense; [16]) [µg/mL]	MIC (M. abscessus) [µg/mL]	further results
NCC[C@H](O)C(=O)N[C@@H]1C[C@H](N)[C@@H](O[C@H]2O[C@H](CN)[C@@H](O)[C@H](O)[C@H]2O)[C@H](O)[C@H]1O[C@H]1O[C@H](CO)[C@@H](O)[C@H](N)[C@H]1O [Amikacin]	256 (≈ 437 µM)	4 (≈ 6.83 µM)	16 to 32 (≈ 27.3 to 54.6 µM)	4 to 8 (≈ 6.83 to 13.7 µM)	16 (≈ 27.3 µM)	8 to 16 (≈ 13.7 to 27.3 µM)	4 (≈ 6.83 µM)	4 (≈ 6.83 µM)	8 to 16 (≈ 13.7 to 27.3 µM)	16 (≈ 27.3 µM)	8 to 16 (≈ 13.7 to 27.3 µM)	16 (≈ 27.3 µM)	8 (≈ 13.7 µM)	8 (≈ 13.7 µM)	4 (≈ 6.83 µM)	8 (≈ 13.7 µM)	8 (≈ 13.7 µM)	4 (≈ 6.83 µM)	1 (≈ 1.71 µM)	1 (≈ 1.71 µM)	Activity (resistant/susceptible) (M. avium-intracellulare; strain 182034/06 M. avium-intracellulare, 1 μg/ml): R; Activity (resistant/susceptible) (M. avium-intracellulare; strain 182034/06 M. avium-intracellulare, 4 μg/ml): S; Activity (resistant/susceptible) (M. avium-intracellulare; strain 182034/06 M. avium-intracellulare, 10 μg/ml): S; Activity (resistant/susceptible) (M. avium-intracellulare; strain 182124/07 M. avium-intracellulare, 1 μg/ml): R; Activity (resistant/susceptible) (M. avium-intracellulare; strain 182124/07 M. avium-intracellulare, 4 μg/ml): S; Activity (resistant/susceptible) (M. avium-intracellulare; strain 182124/07 M. avium-intracellulare, 10 μg/ml): S; Activity (resistant/susceptible) (M. avium-intracellulare; strain 182550/07 M. avium-intracellulare, 1 μg/ml): R; Activity (resistant/susceptible) (M. avium-intracellulare; strain 182550/07 M. avium-intracellulare, 4 μg/ml): S; Activity (resistant/susceptible) (M. avium-intracellulare; strain 182550/07 M. avium-intracellulare, 10 μg/ml): S; MIC ([1]; MRSA AG048, strain 20-06R Gm^R): 256 µg/mL (≈ 437 µM); MIC ([1]; Staphylococcus aureus, MRSA, MRSA AG046, strain 12-06R Gm^R): 32 µg/mL (≈ 54.6 µM); Activity (resistant/susceptible) (M. kansasii; strain 177227/06 M. kansasii, 1 μg/ml): R; Activity (resistant/susceptible) (M. kansasii; strain 177227/06 M. kansasii, 4 μg/ml): S; Activity (resistant/susceptible) (M. kansasii; strain 177227/06 M. kansasii, 10 μg/ml): S; Activity (resistant/susceptible) (M. kansasii; strain 180235/06 M. kansasii, 1 μg/ml): R; Activity (resistant/susceptible) (M. kansasii; strain 180235/06 M. kansasii, 4 μg/ml): S; Activity (resistant/susceptible) (M. kansasii; strain 180235/06 M. kansasii, 10 μg/ml): S
NC[C@H]1O[C@H](O[C@H]2[C@H](O)[C@@H](O[C@H]3O[C@H](CO)[C@@H](O)[C@H](N)[C@H]3O)[C@H](N)C[C@@H]2N)[C@H](O)[C@@H](O)[C@@H]1O [Kanamicin A]	> 256	4 (≈ 8.26 µM)	128 to 256 (≈ 264 to 528 µM)	2 to 4 (≈ 4.13 to 8.26 µM)	256 (≈ 528 µM)	128 to 256 (≈ 264 to 528 µM)	64 (≈ 132 µM)	64 (≈ 132 µM)	–	–	–	–	256 (≈ 528 µM)	64 (≈ 132 µM)	64 (≈ 132 µM)	16 (≈ 33 µM)	32 (≈ 66 µM)	32 (≈ 66 µM)	16 (≈ 33 µM)	4 (≈ 8.26 µM)	MIC ([1]; MRSA AG047, strain 18-06R Gm^R): >256 µg/mL; MIC ([1]; MRSA AG049, strain 23-12R Gm^R): >256 µg/mL; MIC ([1]; MRSA AG050, strain 31-06R Gm^R): >256 µg/mL; MIC ([1]; MRSA AG051, strain 36-06R Gm^R): >256 µg/mL; MIC ([1]; MRSA AG052, strain 53-14I Gm^R): >256 µg/mL; MIC [1, 17]: > 512 µg/mL; MIC (E. coli; [18]): 16 µg/mL (≈ 33 µM); MIC (E. coli; [19]): 4 to 8 µg/mL (≈ 8.26 to 16.5 µM); MIC (E. coli; [20]): 16 to 32 µg/mL (≈ 33 to 66 µM); MIC (E. coli; E. coli AG06, BM13): 1 to 2 µg/mL (≈ 2.06 to 4.13 µM); MIC (E. coli; [21]): 8 µg/mL (≈ 16.5 µM); MIC (E. coli; [22]): 16 to 128 µg/mL (≈ 33 to 264 µM); MIC (E. coli; [23]): 256 to 512 µg/mL (≈ 528 to 1060 µM); MIC (E. coli; [24]): 16 to 32 µg/mL (≈ 33 to 66 µM); MIC (E. coli; [25]): > 256 µg/mL
NC[C@H]1O[C@H](O[C@H]2[C@H](O)[C@@H](O[C@H]3O[C@H](CO)[C@@H](O)[C@H](N)[C@H]3O)[C@H](N)C[C@@H]2N)[C@H](N)C[C@@H]1O [Tobramycin]	128 to 256 (≈ 274 to 548 µM)	0.5 to 1 (≈ 1.07 to 2.14 µM)	≥ 256	0.5 to 1 (≈ 1.07 to 2.14 µM)	≥ 256	32 (≈ 68.4 µM)	8 (≈ 17.1 µM)	8 (≈ 17.1 µM)	8 to 16 (≈ 17.1 to 34.2 µM)	32 to 64 (≈ 68.4 to 137 µM)	32 to 64 (≈ 68.4 to 137 µM)	8 to 16 (≈ 17.1 to 34.2 µM)	16 to 32 (≈ 34.2 to 68.4 µM)	32 (≈ 68.4 µM)	32 (≈ 68.4 µM)	16 (≈ 34.2 µM)	32 (≈ 68.4 µM)	16 (≈ 34.2 µM)	8 (≈ 17.1 µM)	4 (≈ 8.56 µM)	MIC ([1]; Staphylococcus aureus, MRSA, MRSA AG047, strain 18-06R Gm^R): ≥ 256 µg/mL; MIC [1, 17]: ≥ 256 µg/mL; MIC, mitohybrid ribosomes (mitohybrid ribosomes): 128; MIC (E. coli; [18]): 4 to 8 µg/mL (≈ 8.56 to 17.1 µM); MIC (E. coli; [19]): 2 µg/mL (≈ 4.28 µM); MIC (E. coli; [20]): 32 µg/mL (≈ 68.4 µM); MIC (E. coli; E. coli AG06, BM13): 0.5 µg/mL (≈ 1.07 µM); MIC (E. coli; [21]): 4 µg/mL (≈ 8.56 µM); MIC (E. coli; [22]): 8 to 64 µg/mL (≈ 17.1 to 137 µM); MIC (E. coli; [23]): 64 to 128 µg/mL (≈ 137 to 274 µM); MIC (E. coli; [24]): 16 to 32 µg/mL (≈ 34.2 to 68.4 µM); MIC (E. coli; [25]): 1 to 2 µg/mL (≈ 2.14 to 4.28 µM); MIC, cytohybrid ribosomes (cytohybrid ribosomes): 512; MIC, bacterial ribosomes (bacterial ribosomes): 1
